Laboratory results from article PMC7822065, “Discovery of indole-3-butyric acid derivatives as potent histone deacetylase inhibitors” (Journal of Enzyme Inhibition and Medicinal Chemistry, 2021).

Assays:
U266 cells = experiment: MTT antiproliferative assay, U266; conditions: Homo sapiens, U-266, 48 h, read-out: U266 IC50
Experimental: The stock solutions of tested compounds were diluted with culture medium. […] Then, the cells were treated with compound sample at various concentrations for 48 h. Afterward, 20 MTT working solution (5 mg/ml) was added to each well and incubated for another 4 h. After incubation, the medium formed from MTT was extracted by adding DMSO (200 µl). The optical density (OD) at 490 nm and 630 nm were measured by Universal Microplate Spectrophotometer. […] The IC50 values were calculated with Origin 7.5 software (Originlab Corporation, Northampton, MA), and standard deviations of the IC50 values were obtained through at least 3 independent experiments.
To evaluate the antiproliferative activity of hydroxamic acid containing molecules, MTT assays were performed using U937, U266, and HepG2 cell lines.

[1] = tested on: HDACs (HeLa nucleus extract containing a mixture of HDAC isoforms); experiment: HDAC inhibitory assay with HeLa nucleus extract; conditions: at the concentration of 1 µM

Structure (SMILES)	IC50 (U266 cells)	HDACs, percentage inhibition rate (PIR) [1]	HDACs, percentage inhibition rate (PIR) ([1]; 1 µM)
CCCNNC(=O)c1ccc(NC(=O)CCCc2cn(Cc3ccccc3)c3ccccc23)cc1 [Compound I2e2, 4-(1-Benzyl-1H-indol-3-yl)-N-[4-(N′-propyl-hydrazinocarbonyl)-phenyl]-butyramide]	1.11 ± 0.08 µM		57.46 ± 2.06%
CCCCNNC(=O)c1ccc(NC(=O)CCCc2cn(Cc3ccccc3)c3ccccc23)cc1 [Compound I2e3, 4-(1-Benzyl-1H-indol-3-yl)-N-[4-(N′-butyl-hydrazinocarbonyl)-phenyl]-butyramide]	1.71 ± 0.07 µM	51.41 ± 2.78%	
CCCNNC(=O)c1ccc(NC(=O)CCCc2cn(CC)c3ccccc23)cc1 [Compound I3e2, 4-(1-Ethyl-1H-indol-3-yl)-N-[4-(N′-propyl-hydrazinocarbonyl)-phenyl]-butyramide]	0.48 ± 0.1 µM	36.51 ± 2.93%	
CCCCNNC(=O)c1ccc(NC(=O)CCCc2cn(CC)c3ccccc23)cc1 [Compound I3e3, N-[4-(N′-Butyl-hydrazinocarbonyl)-phenyl]-4-(1-ethyl-1H-indol-3-yl)-butyramide]	1.45 ± 0.1 µM	31.94 ± 1.51%	
CCCNNC(=O)c1ccc(NC(=O)CCCc2cn(Cc3cccc(F)c3)c3ccccc23)cc1 [Compound I7e2, 4-[1-(3-Fluoro-benzyl)-1H-indol-3-yl]-N-[4-(N′-propyl-hydrazinocarbonyl)-phenyl]-butyramide]	1.32 ± 0.08 µM	30.45 ± 3.38%	
CCCNNC(=O)c1ccc(NC(=O)CCCc2cn(Cc3c(F)cccc3F)c3ccccc23)cc1 [Compound I10e2, 4-[1-(2,6-Difluoro-benzyl)-1H-indol-3-yl]-N-[4-(N′-propyl-hydrazinocarbonyl)-phenyl]-butyramide]	0.74 ± 0.05 µM	46.85 ± 2.06%	
CCCCn1cc(CCCC(=O)Nc2ccc(C(=O)NNCCC)cc2)c2ccccc21 [Compound I12e2, 4-(1-Butyl-1H-indol-3-yl)-N-[4-(N′-propyl-hydrazinocarbonyl)-phenyl]-butyramide]	1.28 ± 0.12 µM	39.73 ± 1.84%	
CCCCNNC(=O)c1ccc(NC(=O)CCCc2cn(CCCC)c3ccccc23)cc1 [Compound I12e3, N-[4-(N′-Butyl-hydrazinocarbonyl)-phenyl]-4-(1-butyl-1H-indol-3-yl)-butyramide]	1.44 ± 0.31 µM	42.76 ± 1.56%	
CCCCNNC(=O)c1ccc(NC(=O)CCCc2cn(C)c3ccccc23)cc1 [Compound I13e3, N-[4-(N′-Butyl-hydrazinocarbonyl)-phenyl]-4-(1-methyl-1H-indol-3-yl)-butyramide]	1.36 ± 0.06 µM	32.15 ± 1.03%	

More lines, main results first:

IC50 (U266 cells)	Structure (SMILES)	HDACs, percentage inhibition rate (PIR) [1]	HDACs, percentage inhibition rate (PIR) ([1]; 1 µM)
15.97 ± 0.14 µM	CCNNC(=O)c1ccc(NC(=O)CCCc2c[nH]c3ccccc23)cc1 [Compound I1e1, N-[4-(N′-Ethyl-hydrazinocarbonyl)-phenyl]-4-(1H-indol-3-yl)-butyramide]	50.60 ± 2.02%	
0.64 ± 0.02 µM	CCCNNC(=O)c1ccc(NC(=O)CCCc2c[nH]c3ccccc23)cc1 [Compound I1e2, 4-(1H-Indol-3-yl)-N-[4-(N′-propyl-hydrazinocarbonyl)-phenyl]-butyramide]	61.34 ± 3.56%	
1.06 ± 0.05 µM	CCCCNNC(=O)c1ccc(NC(=O)CCCc2c[nH]c3ccccc23)cc1 [Compound I1e3, N-[4-(N′-Butyl-hydrazinocarbonyl)-phenyl]-4-(1H-indol-3-yl)-butyramide]	30.47 ± 1.17%	
16 ± 0.67 µM	CC(C)CNNC(=O)c1ccc(NC(=O)CCCc2c[nH]c3ccccc23)cc1 [Compound I1e4, 4-(1H-Indol-3-yl)-N-[4-(N′-isobutyl-hydrazinocarbonyl)-phenyl]-butyramide]	7.16 ± 1.50%	
0.71 ± 0.11 µM	CCCNNC(=O)c1ccc(NC(=O)CCCc2cn(C)c3ccccc23)cc1 [Compound I13e2, 4-(1-Methyl-1H-indol-3-yl)-N-[4-(N′-propyl-hydrazinocarbonyl)-phenyl]-butyramide]	29.68 ± 2.06%	
